Source: patent US9732063B2, “Kinase inhibitors” (RESPIVERT LIMITED, priority 2012, dated 2017)
Where two headings read alike, the source gives them in different places.

Legend:
[1] = target: p38 MAPKα (Homo sapiens (Human), UniProt Q16539); experiment: p38 MAPKα enzyme inhibition (Z-LYTE FRET, Method 2); format: biochemical
[2] = target: c-Src (Homo sapiens (Human), UniProt P12931); experiment: c-Src enzyme inhibition (Z-LYTE FRET); format: biochemical
How it was run: (§1)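 2 hr RT enzyme + cpd (added solns 4/0.4/0.04/0.004 μg/mL); + FRET peptide (8 μM soln) + ATP soln (c-Src 800 μM, Syk 60 μM), 1 hr; protease development 1 hr; read donor/acceptor emission ratio.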

[3] = target: Syk (Homo sapiens (Human), UniProt P43405); experiment: Syk enzyme inhibition (Z-LYTE FRET); format: biochemical
How it was run: as §1

[4] = test system: d-U937 cells; experiment: LPS-induced TNFα/IL-8 release in d-U937 cells; format: cell-based; conditions: Homo sapiens
[5] = test system: PBMCs; experiment: LPS-induced TNFα/IL-8 release in PBMC cells; format: cell-based; conditions: Homo sapiens
How it was run: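 TNFα and IL-8 in supernatants were measured by sandwich ELISA after 24 h of 1 ng/mL LPS (E. coli O111:B4) at 37 °C, 5% CO2. Test compounds were added 2 h before LPS to PBMCs from healthy subjects, separated on a density gradient.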

[6] = test system: PBMCs; experiment: IL-2 and IFN gamma release in CD3/CD28 stimulated PBMC cells; format: cell-based; conditions: Homo sapiens
How it was run: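 They were cultured with compound for 3 days. IL-2 and IFN-γ in supernatants were quantified by sandwich ELISA, and IC50 was derived from the dose-response curve.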

[7] = test system: HT29 cells; experiment: IL-1β-induced IL-8 release in HT29 cells; format: cell-based; conditions: Homo sapiens, HT-29, read-out: IC50 Values for Inhibition of Cytokine Release HT29 cells IL-8
Protocol: HT29 cells, a human colon adenocarcinoma cell line, are plated in a 96 well plate (24 hrs) and pre-treated with compounds at the desired concentration for 2 hours before addition of 5 ng/mL of IL-1β (Abcam) for 24 hours. Supernatants are harvested for IL-8 quantification by Sandwich ELISA (Duo-set, R&D System). The IC50 is determined from the dose response curve.

[8] = test system: intestinal mucosa biopsies from the inflamed regions of the colon; experiment: Human biopsy assay (intestinal mucosa biopsies of ulcerative colitis patients); format: cell-based; conditions: 24 hours; for cytokine (IL-1β, IL-6 and IL-8) release compared to the DMSO control: 1 μg/mL, biopsies from ulcerative colitis patients; for IL-1β release / IL-6 release / IL-8 release: 1 μg/ml, biopsies of UC patients, DMSO control = 100%
Protocol: Intestinal mucosa biopsies are obtained from the inflamed regions of the colon of IBD patients. […] DMSO control or test compounds at the desired concentration are added to the tissue and incubated for 24 hr in the organ culture chamber. The supernatant is harvested for determination of IL-6, IL-8, IL-1β and TNFα levels by R&D ELISA.

[9] = test system: TNBS-induced colitis; conditions: for LP inflammation / Ulcer grade: oral gavage BID, conducted over 2 days, mice; for inflammatory cell infiltrate in the reticular and laminar propria zone / ulcer grade and epithelial repair compared to the vehicle control: dosed orally at either 1 or 5 mg/kg
Protocol: On Day 0 of the study TNBS (200 μL) is administered intra-colonically via a plastic catheter followed by BID dosing of the vehicle, reference or test compound for 2 or 4 days. During the study animals are weighed every day and stool observations are made and recorded as a score, based on stool consistency. At the time of sacrifice on Day 2 (or Day 4) the large intestine is removed and the length and weight recorded. Sections of the colon are taken for either MPO analysis to determine neutrophil infiltration or for histopathology involving scoring to determine disease severity.

[10] = target: GSK3α (Homo sapiens (Human), UniProt P49840); experiment: GSK 3α enzyme inhibition (Z-LYTE FRET, Method 2); format: biochemical
How it was run: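 Z-LYTE FRET: GSK3α preincubated with compound 2 h at RT, then FRET peptide and ATP added (stocks 8 μM and 40 μM) for 1 h, followed by 1 h protease development. Compound stocks 4–0.004 μg/mL; phosphorylation from coumarin/fluorescein emission ratio.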

[11] = dU937, read-out: IC50 Values for Inhibition of Cytokine Release dU937 cells IL-8
[12] = dU937, read-out: IC50 Values for Inhibition of Cytokine Release dU937 cells TNFα
[13] = read-out: IC50 Values for Inhibition of Cytokine Release PBMCs IL-8
[14] = read-out: IC50 Values for Inhibition of Cytokine Release PBMCs TNFα
[15] = read-out: IC50 Values for Inhibition of Cytokine Release PBMCs IFNγ
[16] = read-out: IC50 Values for Inhibition of Cytokine Release PBMCs IL-2

c-Src, sequence (P12931 whole entry, looked up): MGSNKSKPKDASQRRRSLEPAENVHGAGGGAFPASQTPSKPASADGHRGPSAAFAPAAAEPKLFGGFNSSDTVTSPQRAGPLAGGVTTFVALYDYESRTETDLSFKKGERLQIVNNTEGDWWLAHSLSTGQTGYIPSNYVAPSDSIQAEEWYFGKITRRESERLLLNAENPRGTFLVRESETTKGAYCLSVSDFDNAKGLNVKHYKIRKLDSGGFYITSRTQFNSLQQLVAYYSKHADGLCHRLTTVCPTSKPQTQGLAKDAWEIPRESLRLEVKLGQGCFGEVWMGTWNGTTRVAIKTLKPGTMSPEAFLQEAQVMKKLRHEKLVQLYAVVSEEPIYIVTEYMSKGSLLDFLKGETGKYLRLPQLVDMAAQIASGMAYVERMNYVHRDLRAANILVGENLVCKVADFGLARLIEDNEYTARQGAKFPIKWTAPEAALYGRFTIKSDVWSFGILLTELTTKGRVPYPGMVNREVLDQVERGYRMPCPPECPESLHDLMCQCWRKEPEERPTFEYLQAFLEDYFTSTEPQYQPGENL
p38 MAPKα, sequence (Q16539 whole entry): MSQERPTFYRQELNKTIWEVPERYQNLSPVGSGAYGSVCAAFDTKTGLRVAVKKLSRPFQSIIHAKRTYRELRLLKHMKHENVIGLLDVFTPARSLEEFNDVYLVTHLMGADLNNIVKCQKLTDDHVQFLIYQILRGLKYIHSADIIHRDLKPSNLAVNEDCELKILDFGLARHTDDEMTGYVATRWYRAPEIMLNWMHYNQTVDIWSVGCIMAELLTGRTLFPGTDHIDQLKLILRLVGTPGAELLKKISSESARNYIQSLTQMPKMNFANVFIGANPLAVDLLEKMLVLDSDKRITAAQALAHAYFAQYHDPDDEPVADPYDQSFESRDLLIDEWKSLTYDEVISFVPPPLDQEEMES
GSK3α, sequence (P49840 whole entry): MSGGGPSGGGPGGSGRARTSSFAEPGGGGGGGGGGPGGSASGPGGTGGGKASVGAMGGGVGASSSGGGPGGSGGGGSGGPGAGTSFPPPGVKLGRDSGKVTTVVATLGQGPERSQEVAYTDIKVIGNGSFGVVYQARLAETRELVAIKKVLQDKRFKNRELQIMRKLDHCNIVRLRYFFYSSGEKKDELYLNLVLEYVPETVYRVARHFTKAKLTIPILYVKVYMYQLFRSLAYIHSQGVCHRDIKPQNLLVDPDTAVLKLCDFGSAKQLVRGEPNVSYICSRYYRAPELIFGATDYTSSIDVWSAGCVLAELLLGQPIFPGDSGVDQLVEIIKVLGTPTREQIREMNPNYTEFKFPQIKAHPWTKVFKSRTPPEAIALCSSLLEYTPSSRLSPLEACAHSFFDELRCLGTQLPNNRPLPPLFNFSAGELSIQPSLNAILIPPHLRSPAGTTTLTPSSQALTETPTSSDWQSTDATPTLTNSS

Structure (SMILES) | IC50 [1] | IC50 [2] | IC50 [3] | IC50 [4, 11] | IC50 [4, 12] | IC50 [5, 13] | IC50 [5, 14] | IC50 [6, 15] | IC50 [6, 16] | IC50 [7] | cytokine (IL-1β, IL-6 and IL-8) release compared to the DMSO control [8] | IL-1β release [8] | IL-6 release [8] | IL-8 release [8] | LP inflammation ([9]; 1 mg/kg) | Ulcer grade ([9]; 1 mg/kg) | LP inflammation ([9]; 5 mg/kg) | Ulcer grade ([9]; 5 mg/kg) | inflammatory cell infiltrate in the reticular and laminar propria zone [9] | ulcer grade and epithelial repair compared to the vehicle control [9] | other results
COCCOCCOCCOc1cc(Nc2cc(Oc3ccc(NC(=O)Nc4cc(C(C)(C)C)nn4-c4ccc(C)cc4)c4ccccc34)ccn2)cc(OC)c1 [Example 56, 1-(3-(tert-Butyl)-1-(p-tolyl)-1H-pyrazol-5-yl)-3-(4-((2-((3-methoxy-5-(2-(2-(2-methoxyethoxy)ethoxy)ethoxy)phenyl)amino)pyridin-4-yl)oxy)naphthalen-1-yl)urea] | 140 nM | 28 nM | 43 nM | 1.4 nM | 0.8 nM | 2.4 nM | 1.6 nM | 2.7 nM | 152 nM | 4.5 nM | significantly inhibited | 5 ± 1% | 19 ± 18% | 3 ± 3% | 2.1 ± 0.3 | 2.3 ± 0.4 | 2.4 ± 0.3 | 3.2 ± 0.4 | marked reduction | marked improvements | 
COCCOCCOCCOCCOCCOCCOCCOc1cc(Nc2nccc(Oc3ccc(NC(=O)Nc4cc(C(C)(C)C)nn4-c4ccc(C)cc4)c4ccccc34)n2)cc(OC)c1 [Example 51, 1-(4-((2-((3-(2,5,8,11,14,17,20-Heptaoxadocosan-22-yloxy)-5-methoxyphenyl)amino)pyrimidin-4-yl)oxy)naphthalen-1-yl)-3-(3-(tert-butyl)-1-(p-tolyl)-1H-pyrazol-5-yl)urea] | 53 nM | 10 nM | 18 nM | 0.4 nM | 0.3 nM | 1.9 nM |  | 1.8 nM | 40.7 nM | 1.6 nM | significantly inhibited | 4 ± 2% | 12 ± 15% | 2 ± 1% | 3.1 ± 0.4 | 2.8 ± 0.5 | 2.3 ± 0.4 | 2.6 ± 0.5 | marked reduction | marked improvements | IC50 [10]: 1330 nM
COCCOCCOCCOc1cc(Nc2nccc(Oc3ccc(NC(=O)Nc4cc(C(C)(C)C)nn4-c4ccc(OC)cc4)c4ccccc34)n2)cc(OC)c1 [Example 44, 1-(3-(tert-Butyl)-1-(4-methoxyphenyl)-1H-pyrazol-5-yl)-3-(4-((2-((3-methoxy-5-(2-(2-(2-methoxyethoxy)ethoxy)ethoxy)phenyl)amino)pyrimidin-4-yl)oxy)naphthalen-1-yl)urea] | 103 nM | 10 nM | 23 nM | 0.6 nM | 0.5 nM | 1.6 nM | 0.6 nM | 1.4 nM | 38.5 nM | 1.2 nM | significantly inhibited | 4 ± 5% | 25 ± 44% | 2 ± 2% |  |  |  |  | marked reduction | marked improvements | 
